Reference: US8765730B2 (Hoffmann-La Roche Inc, priority 2010, dated 2014)
Where two headings read alike, the source gives them in different places.

Target: T1, human GPBAR1 receptor (Homo sapiens, UniProt Q8TDU6)
T1 construct: expressed in transfected cells
T1 sequence (Q8TDU6 1-330): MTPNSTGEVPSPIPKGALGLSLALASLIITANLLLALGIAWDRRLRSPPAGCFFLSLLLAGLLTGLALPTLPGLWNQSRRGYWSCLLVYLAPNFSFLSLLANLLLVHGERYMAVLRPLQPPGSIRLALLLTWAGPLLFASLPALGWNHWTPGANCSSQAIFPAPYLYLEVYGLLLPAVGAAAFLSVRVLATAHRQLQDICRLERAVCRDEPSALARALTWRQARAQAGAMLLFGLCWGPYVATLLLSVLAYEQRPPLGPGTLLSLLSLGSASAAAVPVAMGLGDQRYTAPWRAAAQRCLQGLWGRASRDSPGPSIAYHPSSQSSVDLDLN
Assay: functional cAMP assay in CHO-dhfr(minus) cells expressing human GPBAR1 receptors
Type: cell-based
Details: 30 min at 30° C.
Method: The final clone was verified by DNA sequence analysis. The plasmid was transfected into CHO cells deficient in dihydrofolate reductase activity (CHO-dhfr−) using Lipofectamine plus (Invitrogen). Clones were isolated in limited dilution conditions and identified by activities in the cAMP assay using lithocholic acid as agonist.
The growth medium was exchanged with Krebs Ringer Bicarbonate buffer with 1 mM IBMX and incubated at 30° C. for 30 min. Compounds were added to a final assay volume of 100 μl and incubated for 30 min at 30° C. […] The time-resolved energy transfer is measured by a TRF reader (Evotec Technologies GmbH, Hamburg Germany), equipped with a ND:YAG laser as excitation source.
EC50 values were determined using Activity Base analysis (ID Business Solution, Limited). […] Specificity for GPBAR1 was tested in non-transfected CHO cells in the same assay as above.

[1] = human EC50, functional cAMP assay

EC50 [1] [µM] | EC50 (functional cAMP assay, read-out: human EC50) [µM] | SMILES
0.111 |  | Cc1cc(C(=O)O)ccc1-c1ccc(C(C/C(=N\O)c2ccc(=O)n(C)c2)c2ccc(Cl)cc2Cl)cc1 (single isomer, unassigned) [Example 477, 4′-[(−)-1-(2,4-Dichloro-phenyl)-3-[(E)-hydroxyimino]-3-(1-methyl-6-oxo-1,6-dihydro-pyridin-3-yl)-propyl]-2-methyl-biphenyl-4-carboxylic acid]
0.06 |  | COC(=O)CNC(=O)c1ccc(-c2ccc(C(C/C(=N\O)c3ccc(=O)n(C)c3)c3ccc(Cl)cc3C)cc2)cc1 (single isomer, unassigned; (+)) [Example 254, (+)-({4′-[1-(4-chloro-2-methyl-phenyl)-3-[(E)-hydroxyimino]-3-(1-methyl-6-oxo-1,6-dihydro-pyridin-3-yl)-propyl]-biphenyl-4-carbonyl}-amino)-acetic acid methyl ester]
0.109 |  | Cc1cc(/C(CC(c2ccc(C(F)(F)F)cc2)c2ccc(F)cc2F)=N/O)ccn1 (centres unmarked) [Example 442, 3-(2,4-Difluoro-phenyl)-1-(2-methyl-pyridin-4-yl)-3-(4-trifluoromethyl-phenyl)-propan-1-one oxime]
0.151 |  | CC(/C(=N\O)c1ccncc1)C(c1ccccc1)c1ccccc1 (centres unmarked) [Example 153, (E)-2-Methyl-3,3-diphenyl-1-pyridin-4-yl-propan-1-one oxime]
0.65 |  | Cc1cnc(F)c(/C(CC(c2ccc(Br)cc2)c2ccccc2C)=N/O)c1 (centres unmarked) [Example 128, (E)-3-(4-Bromo-phenyl)-1-(2-fluoro-5-methyl-pyridin-3-yl)-3-o-tolyl-propan-1-one oxime]
0.038 |  | Cc1cc(Cl)ccc1C(C/C(=N\O)c1ccc(=O)n(C)c1)c1ccc(Br)cc1 (centres unmarked) [Example 226, 5-{3-(4-Bromo-phenyl)-3-(4-chloro-2-methyl-phenyl)-1-[(E)-hydroxyimino]-propyl}-1-methyl-1H-pyridin-2-one]
0.021 |  | Cc1cc(/C(C[C@H](c2ccc(C(=O)N(C)C)cc2)c2ccccc2C)=N/O)ccn1 [Example 277, 4-[(R)-3-[(E)-Hydroxyimino]-3-(2-methyl-pyridin-4-yl)-1-o-tolyl-propyl]-N,N-dimethyl-benzamide]
0.012 |  | Cn1cc(/C(CC(c2ccc(Br)cc2)c2ccccc2Cl)=N/O)ccc1=O (centres unmarked) [Example 203, 5-{3-(4-Bromo-phenyl)-3-(2-chloro-phenyl)-1-[(E)-hydroxyimino]-propyl}-1-methyl-1H-pyridin-2-one]
0.453 |  | CC(C)CC(C/C(=N\O)c1ccc(=O)n(C)c1)c1ccc(Br)cc1 (centres unmarked) [Example 170, 5-{3-(4-Bromo-phenyl)-1-[(E)-hydroxyimino]-5-methyl-hexyl}-1-methyl-1H-pyridin-2-one]
0.008 |  | Cc1cc(/C(CC(c2ccc(-c3ccc(C(=O)O)cc3)cc2)c2ccc(F)cc2C)=N/O)ccn1 (centres unmarked) [Example 141, (E)-4′-(1-(4-Fluoro-2-methylphenyl)-3-(hydroxyimino)-3-(2-methylpyridin-4-yl)propyl)biphenyl-4-carboxylic acid]
0.173 |  | CCC(CC(=NO)c1ccncc1)c1cccc(Br)c1 (racemic) [Example 13, 3-(3-Bromo-phenyl)-1-pyridin-4-yl-pentan-1-one oxime]
9.64 |  | Cn1cc(/C(CC(c2ccccc2Cl)C2CC[N+](C)(C)CC2)=N/O)ccc1=O (centres unmarked) [Example 198, 4-[1-(2-Chloro-phenyl)-3-[(E)-hydroxyimino]-3-(1-methyl-6-oxo-1,6-dihydro-pyridin-3-yl)-propyl]-1,1-dimethyl-piperidinium iodide]
 | 0.153 | CCOC(=O)CCCNC(=O)c1ccc(C(C/C(=N\O)c2ccc(=O)n(C)c2)c2ccccc2C)cc1 (centres unmarked) [Example 212, 4-{4-[3-[(E)-Hydroxyimino]-3-(1-methyl-6-oxo-1,6-dihydro-pyridin-3-yl)-1-o-tolyl-propyl]-benzoylamino}-butyric acid ethyl ester]
0.092 |  | OCc1ccc(-c2ccc(C(C/C(=N\O)c3ccncc3)c3ccccc3)cc2)cc1 (centres unmarked) [Example 27, (E)-3-(4′-Hydroxymethyl-biphenyl-4-yl)-3-phenyl-1-pyridin-4-yl-propan-1-one oxime]
